The values that follow come from paper PMC7076672, “Improving the Oral Bioavailability of an Anti-Glioma Prodrug CAT3 Using Novel Solid Lipid Nanoparticles Containing Oleic Acid-CAT3 Conjugates” (Pharmaceutics, 2020).

The viability is a read-out of living cells in per cent, often relative to untreated cells. The Papp A→B is the apparent permeability from the apical to the basolateral side of a cell layer. Higher therefore signals ready permeation.

The test system of one data set is C6 glioma cells. The experiment in a line: In vitro cytotoxicity analysis (MTT assay). Type of data set: cell-based. As to conditions: 0.64 ng/mL. Here is the method: Cytotoxicity of the CAT3 suspension, OA-CAT3-SLN, and blank SLN against the C6 brain glioma cell line was measured by 3-(4,5-dimethylthiazol-2-yl)-2,5 diphenyltetrazolium bromide (MTT) assay. Briefly, the cells were seeded into 96-well plates at a cell density of 2 × 10^4 cells/mL (100 μL/well). After 24 h of incubation, the cells were further incubated for 24, 48, and 72 h in fresh DMEM complete medium containing 0.64 ng/mL CAT3 suspension, OA-CAT3-SLN, or the blank SLN, respectively. At the above-mentioned time points, the culture medium was replaced by the MTT solution (0.5 mg/mL, 200 μL/well), followed by incubation for further 4 h. The supernatant was removed and 100 μL of DMSO solution was added to the wells. The absorbance values of each well were measured at 570 nm using a microplate reader (Synergy H1 Hybrid Multi-Mode Microplate Reader, BioTek, Winooski, VT, USA).
A general note: Tetrazolium dyes change colour on reduction, which living cells bring about.

The nature of data set [1]: In vitro release under simulated gastrointestinal conditions (dialysis bag). As to conditions: 0.1% SDS medium, 37 °C. Format: physicochemical. Here is the method:
Drug release from SLN was monitored in vitro under simulated gastrointestinal conditions. The tests were performed by placing 2 mL SLN samples (containing 2 mg CAT3) into 400 mL of the dissolution medium maintained at 37 °C. The dissolution media contained 0.1% SDS (w/v) to meet sink conditions. Preswollen 8–10 kDa MWCO dialysis bags (Sigma-Aldrich, Madrid, Spain), which contained 5 mL of the blank SDS solution with the same concentration, were placed into the dissolution flask (n = 3). The release behavior of CAT3 was compared under the same condition by placing 5 mg CAT3 powder into the 1000 mL media. The samples (1 mL) were withdrawn at predetermined time points from the dialysis bags and replaced with the same amount of fresh medium maintained at 37 °C. The samples were centrifuged for 5 min at 12,000 rpm, and the resultant supernatants were quantified for drug content. The samples were protected from light during the experiments. The DDsolver software was used to evaluate the drug-release kinetics. An Excel worksheet (Microsoft Corporation, Redmond, WA, USA) was used to control the computing method for comparison with the results obtained using the DDSolver program. According to the example format for each built-in module of the DDSolver, all data were entered into Excel. The relevant parameters were calculated following the step-by-step equations utilizing an Excel spreadsheet.

Data set [2] in a line: Transepithelial transport study. Type of data set: in vitro ADME, canine. The conditions noted are these: dog, MDCK-MDR1, 37 °C, n = 3. Here is the method: The permeabilities of CAT3 and OA-CAT3-SLN were investigated on an MDCK-MDR1 cell monolayer. MDCK-MDR1 cells were seeded onto 12-well transwell® filter inserts (pore size 0.4 μm, surface area 1.12 cm^2; Corning Incorporated, Corning, NY, USA) at a density of 2 × 10^5 cells/well. The culture medium was changed every 24 h for seven days, and the cell monolayers with a transepithelial electrical resistance (TEER) above 110 Ω·cm^2 were used for the transport experiments. Prior to performing the TEER test, the culture medium was removed, and the monolayer was pre-incubated with 0.5 mL of Hanks’ balanced salt solution (HBSS) for 20 min at 37 °C. […]
To investigate the mechanism of cellular internalization of OA-CAT3-SLN, various specific endocytic inhibitors were evaluated in the uptake study. […]
The amount of CAT3 or OA-CAT3-SLN that permeated that through the monolayer was determined using the liquid chromatography-mass spectrometry (LC-MS/MS) system. The apparent permeability coefficient (Papp) of CAT3 or OA-CAT3-SLN was calculated according to the following equation: Papp = dQ/dt × 1/(A × C0), where dQ/dt indicates the linear appearance rate of mass at the BL side (μmol/s), C0 is the initial concentration of CAT3 or OA-CAT3-SLN on the AP side (μmol/mL), and A is the surface area of the monolayer (cm^2).

In the next data set the test system is human cell lines. The conditions noted are these: versus pro-drug CAT3; cited from earlier work.
The subject of a further data set is P-gp. On the set-up: method as in PMID 25936609, PMID 35547992. The conditions noted are these: cited from earlier work.

Where two headings read alike, the source gives them in different places.

For `COc1cc2c3c(c4ccc(OC(=O)C(C)(C)C)cc4c2cc1OC)C[C@@H]1CCCN1C3` [CAT3, 13a-(S)-3-pivaloyloxyl-6,7-dimethoxyphenanthro(9,10-b)-indolizidine], the viability at 0.00064 µg/mL with C6 glioma cells (24 h, n = 3, read-out: cell viability 24 h) was determined as 81.2%; in the data set with C6 glioma cells (48 h, n = 3, read-out: cell viability 48 h) it was 46.2%; with C6 glioma cells (72 h, n = 3, read-out: cell viability 72 h), 16.5%. The “CAT3 released in the first 24 h” value in data set [1] was “more than 80%”. In data set [2], this molecule yielded a Papp A→B at 2 h, 100 ng/mL of 0.106 ± 0.0289 ×10⁻⁶ cm/s.

Take `COc1cc2c3c(c4ccc(O)cc4c2cc1OC)C[C@@H]1CCCN1C3` [PF403, 13a(S)-3-hydroxyl-6,7-dimethoxyphenanthro(9,10-b)-indolizidine]: the “in vitro antitumor activity, times greater than CAT3” value with human cell lines is reported as “about 1000 times”. The P-gp substrate result in the data set with P-gp is reported as “substrate of P-gp”.
